From US11464770B2, “Anticancer pharmaceutical composition” (NATIONAL CANCER CENTER, priority 2016, dated 2022) come the findings set out here.

Test [1] concerns blood cancer cell lines (e.g. HL-60, Jurkat, Raji, Ramos, Daudi, MOLT-4). In words: Cell based assay, cell viability (CellTiter-Glo), blood cancer cell lines. The settings on record: Homo sapiens. The method, boiled down: (§1)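 72-hour continuous compound exposure, 0 to 2 μM final, begun one day after seeding; endpoint is ATP-based luminescent viability.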
Test [2] has as its system pancreatic cancer cell lines (e.g. MIA PaCa-2). In words: Cell based assay, cell viability (CellTiter-Glo), pancreatic cancer cell lines. The settings on record: Homo sapiens. The method, boiled down: as §1
The next test relates to brain cancer cell lines. The test is described as follows: Cell based assay, cell viability (CellTiter-Glo), brain cancer cell lines. The conditions noted are these: Homo sapiens.
The subject of test [3] is cervical carcinoma cell lines. The test is described as follows: Cell based assay, cell viability (CellTiter-Glo), cervical carcinoma cell lines. The conditions noted are these: Homo sapiens; HeLa cells.
For the next test, the system named is renal cancer cell lines. The test is described as follows: Cell based assay, cell viability (CellTiter-Glo), renal cancer cell lines. The conditions noted are these: Homo sapiens; ACHN cells. The method, boiled down: as §1
Setting [4] is: MV4-11, blood cancer cell line MV-4-11, 72 hours, read-out: IC50, MV-4-11.
Where [5] appears, read: blood cancer cell line Daudi, 72 hours, read-out: IC50, Daudi.
[6] abbreviates: blood cancer cell line HL-60, 72 hours, read-out: IC50, HL-60.
The mark [7] stands for this setting: blood cancer cell line Jurkat, 72 hours, read-out: IC50, Jurkat.
The mark [8] stands for this setting: blood cancer cell line MOLT-4, 72 hours, read-out: IC50, MOLT-4.
[9] abbreviates: blood cancer cell line Raji, 72 hours, read-out: IC50, Raji.
Where [10] appears, read: blood cancer cell line Ramos (RA 1), 72 hours, read-out: IC50, Ramos (RA 1).
Where [11] appears, read: blood cancer cell line U-937, 72 hours, read-out: IC50, U-937.
The mark [12] stands for this setting: pancreatic cancer cell line AsPC-1, 72 hours, read-out: IC50, AsPC-1.
The mark [13] stands for this setting: pancreatic cancer cell line BxPC-3, 72 hours, read-out: IC50, BxPC-3.
[14] abbreviates: pancreatic cancer cell line CFPAC-1, 72 hours, read-out: IC50, CFPAC-1.
Setting [15] is: pancreatic cancer cell line Capan-1, 72 hours, read-out: IC50, Capan-1.
Where [16] appears, read: pancreatic cancer cell line Capan-2, 72 hours, read-out: IC50, Capan-2.
Where [17] appears, read: pancreatic cancer cell line MIA PaCa-2, 72 hours, read-out: IC50, MIA PaCa-2.
[18] abbreviates: pancreatic cancer cell line PANC-1, 72 hours, read-out: IC50, PANC-1.
[19] abbreviates: U138-MG, U-138 MG cell line, read-out: IC50, Brain cancer cell line U-138 MG.
The mark [20] stands for this setting: T98G cell line, read-out: IC50, Brain cancer cell line T98G.
Setting [21] is: U-251 MG cell line, read-out: IC50, Brain cancer cell line U-251 MG.

Structures are written as SMILES. Where two headings read alike, the source gives them in different places.

On to `O=C(c1c([S+]([O-])Cc2ccc(SC(F)(F)F)cc2)[nH]c2c(Br)ccc(Cl)c2c1=O)C1CC1` (centres unmarked) [Compound 101, 8-bromo-5-chloro-3-(cyclopropanecarbonyl)-2-((4-((trifluoromethyl)thio)benzyl)sulfinyl)quinolin-4(1H)-one], for which the IC50 in test [1] (setting [4]) was > 2 µM; in test [1] (setting [5]), 1.04 µM; in test [1] (setting [6]), > 2 µM; in test [1] (setting [7]) it was 1.01 µM; in test [1] (setting [8]), 1.16 µM; in test [1] (setting [9]), 1.79 µM. Moreover, the IC50 in test [1] (setting [10]) was 1.48 µM; in test [1] (setting [11]), > 2 µM; in test [2] (setting [12]) it was > 2 µM; in test [2] (setting [13]) it was > 2 µM; in test [2] (setting [14]), > 10 µM; in test [2] (setting [15]), > 2 µM. In addition, the IC50 in test [2] (setting [16]) was > 2 µM; in test [2] (setting [17]), 1.83 µM; in test [2] (setting [18]), > 2 µM; in the test with brain cancer cell lines (setting [19]), > 2 µM; with brain cancer cell lines (setting [20]) it was > 10 µM; in the test with brain cancer cell lines (setting [21]), > 2 µM. Moreover, the IC50 (in test [3]; in the test with renal cancer cell lines) was > 2 µM throughout.

As to `CC(=O)c1c([S+]([O-])Cc2ccc(C(F)(F)F)nc2C)[nH]c2c(Br)ccc(Cl)c2c1=O` (centres unmarked) [Compound 102, 3-acetyl-8-bromo-5-chloro-2-(((2-methyl-6-(trifluoromethyl)pyridin-3-yl)methyl)sulfinyl)quinolin-4(1H)-one], the 50% inhibitory concentration (IC50) in test [1] (setting [4]) was 1.01 µM; in test [1] (setting [5]), 1.02 µM; in test [1] (setting [6]) it was 1.87 µM; in test [1] (setting [7]) it was > 2 µM; in test [1] (setting [8]), 0.94 µM; in test [1] (setting [9]) it was 1.4 µM. The IC50 in test [1] (setting [10]) was 0.98 µM; in test [1] (setting [11]) it was > 2 µM; in test [2] (setting [12]) it was 1.54 µM; in test [2] (setting [13]), > 2 µM; in test [2] (setting [14]), > 10 µM; in test [2] (setting [15]) it was 1.66 µM. In addition, the IC50 is > 2 µM in test [2] (setting [16]); 0.69 µM in test [2] (setting [17]); > 2 µM in test [2] (setting [18]); 1.24 µM in the test on brain cancer cell lines (setting [19]); > 10 µM with brain cancer cell lines (setting [20]); > 2 µM with brain cancer cell lines (setting [21]). For the same compound, the IC50 in test [3] was > 2 µM; with renal cancer cell lines it was 1.63 µM.

Regarding `CC(=O)c1c([S+]([O-])Cc2ccc(NS(C)(=O)=O)cc2)[nH]c2c(Br)ccc(Cl)c2c1=O` (centres unmarked) [Compound 103, N-(4-(((3-acetyl-8-bromo-5-chloro-4-oxo-1,4-dihydroquinolin-2-yl)sulfinyl)methyl)phenyl)methane-sulfonamide], the IC50 in test [1] (setting [4]), in test [1] (setting [5]), in test [1] (setting [6]), in test [1] (setting [7]), in test [1] (setting [8]) and in test [1] (setting [9]) was > 2 µM in each case. In addition, the IC50 in test [1] (setting [10]) is > 2 µM; in test [1] (setting [11]), > 2 µM; in test [2] (setting [12]) it was > 2 µM; in test [2] (setting [13]), > 2 µM; in test [2] (setting [14]), > 10 µM; in test [2] (setting [15]) it was > 2 µM. The IC50 in test [2] (setting [16]) was > 2 µM; in test [2] (setting [17]), > 2 µM; in test [2] (setting [18]), > 2 µM; in the test with brain cancer cell lines (setting [19]) it was > 2 µM; in the test with brain cancer cell lines (setting [20]), > 10 µM; with brain cancer cell lines (setting [21]), > 2 µM. The IC50 (in test [3]; with renal cancer cell lines) was > 2 µM throughout.

In the case of `CC(=O)c1c([S+]([O-])Cc2ccc(Cl)nc2)[nH]c2c(Br)ccc(Cl)c2c1=O` (centres unmarked) [Compound 104, 3-acetyl-8-bromo-5-chloro-2-(((6-chloropyridin-3-yl)methyl)sulfinyl)quinolin-4(1H)-one], the IC50 in test [1] (setting [4]) was 0.95 µM; in test [1] (setting [5]) it was 1.15 µM; in test [1] (setting [6]), > 2 µM; in test [1] (setting [7]), > 2 µM; in test [1] (setting [8]), 0.93 µM; in test [1] (setting [9]) it was 1.44 µM. In addition, the 50% inhibitory concentration (IC50) in test [1] (setting [10]) was 1.06 µM; in test [1] (setting [11]), > 2 µM; in test [2] (setting [12]), > 2 µM; in test [2] (setting [13]), > 2 µM; in test [2] (setting [14]) it was > 10 µM; in test [2] (setting [15]) it was 1.59 µM. Moreover, the IC50 in test [2] (setting [16]) was > 2 µM; in test [2] (setting [17]) it was 0.79 µM; in test [2] (setting [18]) it was > 2 µM; in the test on brain cancer cell lines (setting [19]), 1.47 µM; in the test on brain cancer cell lines (setting [20]) it was > 10 µM; in the test with brain cancer cell lines (setting [21]), > 2 µM. In addition, the results for the IC50 (in test [3]; in the test with renal cancer cell lines) were > 2 µM and 1.2 µM, respectively.

For `COCCNc1ccc(C[S+]([O-])c2[nH]c3c(Br)ccc(Cl)c3c(=O)c2C(C)=O)cn1` (centres unmarked) [Compound 105, 3-acetyl-8-bromo-5-chloro-2-(((6-((2-methoxyethyl)amino)pyridin-3-yl)methyl)sulfinyl)quinolin-4(1H)-one], the 50% inhibitory concentration (IC50) in test [1] (setting [4]), in test [1] (setting [5]), in test [1] (setting [6]), in test [1] (setting [7]), in test [1] (setting [8]) and in test [1] (setting [9]) was > 2 µM throughout. The IC50 is > 2 µM in test [1] (setting [10]); > 2 µM in test [1] (setting [11]); > 2 µM in test [2] (setting [12]); > 2 µM in test [2] (setting [13]); > 10 µM in test [2] (setting [14]); > 2 µM in test [2] (setting [15]). Further, the IC50 is > 2 µM in test [2] (setting [16]); > 2 µM in test [2] (setting [17]); > 2 µM in test [2] (setting [18]); > 10 µM in the test on brain cancer cell lines (setting [19]); > 10 µM in the test with brain cancer cell lines (setting [20]); > 2 µM with brain cancer cell lines (setting [21]). Moreover, the IC50 (in test [3]; with renal cancer cell lines) was > 2 µM throughout.

In the case of `CC(=O)c1c([S+]([O-])Cc2nonc2C)[nH]c2c(Br)ccc(Cl)c2c1=O` (centres unmarked) [Compound 106, 3-acetyl-8-bromo-5-chloro-2-(((4-methyl-1,2,5-oxadiazol-3-yl)methyl)sulfinyl)quinolin-4(1H)-one], the IC50 in test [1] (setting [4]), in test [1] (setting [5]), in test [1] (setting [6]), in test [1] (setting [7]), in test [1] (setting [8]) and in test [1] (setting [9]) was > 2 µM throughout. The IC50 in test [1] (setting [10]) is > 2 µM; in test [1] (setting [11]), > 2 µM; in test [2] (setting [12]), > 2 µM; in test [2] (setting [13]), > 2 µM; in test [2] (setting [14]), > 10 µM; in test [2] (setting [15]), > 2 µM. For the same compound, the IC50 in test [2] (setting [16]) is > 2 µM; in test [2] (setting [17]) it was > 2 µM; in test [2] (setting [18]), > 2 µM; with brain cancer cell lines (setting [19]), > 10 µM; in the test with brain cancer cell lines (setting [20]), > 10 µM; in the test with brain cancer cell lines (setting [21]) it was > 2 µM. Also, the IC50 (in test [3]; in the test on renal cancer cell lines) was > 2 µM each time.

Regarding `CC(=O)c1c([S+]([O-])Cc2cnc3[nH]ccc3c2)[nH]c2c(Br)ccc(Cl)c2c1=O` (centres unmarked) [Compound 107, 2-(((1H-pyrrolo[2,3-b]pyridin-5-yl)methyl)sulfinyl)-3-acetyl-8-bromo-5-chloroquinolin-4(1H)-one], the IC50 in test [1] (setting [4]), in test [1] (setting [5]), in test [1] (setting [6]), in test [1] (setting [7]), in test [1] (setting [8]) and in test [1] (setting [9]) was > 2 µM in each case. In addition, the IC50 in test [1] (setting [10]) is > 2 µM; in test [1] (setting [11]), > 2 µM; in test [2] (setting [12]), > 2 µM; in test [2] (setting [13]) it was > 2 µM; in test [2] (setting [14]) it was > 10 µM; in test [2] (setting [15]) it was > 2 µM. Moreover, the IC50 in test [2] (setting [16]) was > 2 µM; in test [2] (setting [17]) it was > 2 µM; in test [2] (setting [18]), > 2 µM; in the test on brain cancer cell lines (setting [19]) it was > 10 µM; in the test with brain cancer cell lines (setting [20]), > 10 µM; with brain cancer cell lines (setting [21]), > 2 µM. Further, the IC50 (in test [3]; with renal cancer cell lines) was > 2 µM each time.
